The source of these data is ChEMBL document CHEMBL3045209, “Synthesis of a novel barbiturate from 1-chloro-2,4-dinitrobenzene as an anticonvulsant agent” (2008).

Active and inactive are the calls of the source. The calls are words filed in the database; no cut-off is given here.

Assay [1] deals with Rattus norvegicus. The experiment in a line: Anticonvulsant activity against maximal electroshock-induced convulsion in Rattus norvegicus albino (rat) assessed as recovery from convulsion at 25 to 100 mg/kg administered 1 hr before test. The format is functional, organism-based. (The maximal electroshock test induces tonic seizures with an electrical stimulus.)
Assay [2] relates to Rattus norvegicus. Briefly: Anticonvulsant activity against maximal electroshock-induced convulsion in Rattus norvegicus albino (rat) assessed as stupor convulsion time at 100 mg/kg administered 1 hr before test. It is filed as functional.
The subject of assay [3] is Rattus norvegicus. The experiment in a line: Anticonvulsant activity against maximal electroshock-induced convulsion in Rattus norvegicus albino (rat) assessed as clonus convulsion time at 100 mg/kg administered 1 hr before test. The format is functional.
Assay [4] deals with Rattus norvegicus. The experiment in a line: Anticonvulsant activity against maximal electroshock-induced convulsion in Rattus norvegicus albino (rat) assessed as tonic extensor convulsion time at 100 mg/kg administered 1 hr before test. The format is functional.
Assay [5] relates to Rattus norvegicus. The experiment in a line: Anticonvulsant activity against maximal electroshock-induced convulsion in Rattus norvegicus albino (rat) assessed as tonic flexor convulsion time at 100 mg/kg administered 1 hr before test. It is filed as functional.
The test system of assay [6] is Rattus norvegicus. Briefly: Anticonvulsant activity against maximal electroshock-induced convulsion inRattus norvegicus albino (rat) assessed as stupor convulsion time at 50 mg/kg administered 1 hr before test. The format is functional.
Assay [7] has as its system Rattus norvegicus. Briefly: Anticonvulsant activity against maximal electroshock-induced convulsion in Rattus norvegicus albino (rat) assessed as clonus convulsion time at 50 mg/kg administered 1 hr before test. It is filed as functional.
For assay [8], the system named is Rattus norvegicus. Briefly: Anticonvulsant activity against maximal electroshock-induced convulsion in Rattus norvegicus albino (rat) assessed as tonic extensor convulsion time at 50 mg/kg administered 1 hr before test. It is filed as functional.
For assay [9], the system named is Rattus norvegicus. The experiment in a line: Anticonvulsant activity against maximal electroshock-induced convulsion in Rattus norvegicus albino (rat) assessed as tonic flexor convulsion time at 50 mg/kg administered 1 hr before test. It is filed as functional.
Assay [10] deals with Rattus norvegicus. Briefly: Anticonvulsant activity against maximal electroshock-induced convulsion in Rattus norvegicus albino (rat) assessed as stupor convulsion time at 25 mg/kg administered 1 hr before test. It is filed as functional.
The test system of assay [11] is Rattus norvegicus. The experiment in a line: Anticonvulsant activity against maximal electroshock-induced convulsion in Rattus norvegicus albino (rat) assessed as clonus convulsion time at 25 mg/kg administered 1 hr before test. It is filed as functional.
In assay [12] the test system is Rattus norvegicus. Briefly: Anticonvulsant activity against maximal electroshock-induced convulsion in Rattus norvegicus albino (rat) assessed as tonic extensor convulsion time at 25 mg/kg administered 1 hr before test. It is filed as functional.
Assay [13] has as its system Rattus norvegicus. The experiment in a line: Anticonvulsant activity against maximal electroshock-induced convulsion in Rattus norvegicus albino (rat) assessed as tonic flexor convulsion time at 25 mg/kg administered 1 hr before test. The format is functional.
Assay [14] has as its system Rattus norvegicus. Briefly: Anticonvulsant activity against maximal electroshock-induced convulsion in Rattus norvegicus albino (rat) assessed as recovery from convulsion at 25 mg/kg administered 1 hr before test. It is filed as functional, organism-based. Further details: dose 25 mg/kg.

Take `O=C1CC(=O)NC(=O)N1` [BARBITURIC ACID]: the result in the assay on Rattus norvegicus [1] was Active. Moreover, the Time with Rattus norvegicus [2] stood at 85.7 s; with Rattus norvegicus [3] it was 5.6 s; with Rattus norvegicus [4] it was 2 s; with Rattus norvegicus [5], 2.9 s; in the assay on Rattus norvegicus [6] it was 82.2 s; in the assay on Rattus norvegicus [7] it was 5.1 s. Besides, the Time worked out at 6.5 s in the assay on Rattus norvegicus [8]; 3.1 s with Rattus norvegicus [9]; 105.5 s in the assay on Rattus norvegicus [10]; 7.2 s with Rattus norvegicus [11]; 13.2 s in the assay with Rattus norvegicus [12]; 4.2 s in the assay on Rattus norvegicus [13].

In the case of `O=C1NC(=O)C(c2ccccc2)(c2ccccc2)N1` [PHENYTOIN], the result in the assay with Rattus norvegicus [14] was Active. Also, the Time worked out at 62.1 s in the assay on Rattus norvegicus [10], 4.6 s in the assay with Rattus norvegicus [11], 0 s in the assay on Rattus norvegicus [12] and 2.66 s in the assay with Rattus norvegicus [13].
